The source of these data is patent US7842488B2, “Polynucleotides encoding a human 3-phosphoinositide- dependent protein kinase” (Medical Research Council, priority 1997, dated 2010).

The test system of data set [1] is PDK1. The data set is described as follows: PDK1 assay: activation of GST-PKBα by purified PDK1 with phospholipid vesicles. The format is biochemical, rabbit. The following applies: for activation and phosphorylation of GST-PKBα by PDK1 in the presence of Triton X-100: 0.5% (by vol) in the assay; for activation of PDK1 (in words) / fold-activation of GST-PKBα (PDK1 activity): lipid 10 μM in vesicles of 100 μM PtdCho, 100 μM PtdSer, 30 min at 30° C.; for order of level of activation of the 3-phosphoinositide-dependent kinase (most effective first): rabbit skeletal muscle PDK1, FIG. 6. On the procedure: (§1) Assay of PDK1. The assay was carried out in two stages; in the first, GST-PKBα was incubated with PDK1 in the presence of MgATP and phospholipid vesicles to permit activation of GST-PKBα.
(§2) After 10 min at 30° C., the reactions were terminated by spotting the reaction mixture on to p81 phosphocellulose paper. The papers were washed in phosphoric acid and analysed as described previously. […] The basal GST-PKBα activity is the activity measured in the absence of PDK1.

The test system of data set [2] is PDK1. As to the kind of experiment: Phosphorylation of GST-PKBα by PDK1 with [γ32P]ATP. The format is biochemical, rabbit. The following applies: lipid 10 μM in PtdCho/PtdSer vesicles. The method, then: Solutions were stored at 4° C. at concentrations 10-fold higher than those required in the assay and used within 2-4 days.
(§3) Phosphorylation of GST-PKB ? by PDK1. The incubations were identical to the Stage 1 described above except that [γ^32P] ATP (200-400 cpm/pmol) was used instead of unlabelled ATP. The reactions were terminated by making the solution 1% (by mass) in SDS. […] The Coomassie blue-staining bands corresponding to GST-PKBα were excised and the ^32P-radioactivity associated with each band was quantified.

In the next data set the target is T1, GST-PKBα (Homo sapiens, UniProt P31749).
T1 construct: generate a full length cDNA encoding the PKBα gene; made in house; host or cells: human embryonic kidney 293 cells (pEBG2T), serum starved
The data set is described as follows: Activity of PDK1 preparations towards GST-PKBα. It counts as biochemical. The following applies: for phosphorylation of GST-PKBα: PtdIns(3,4,5)P3 lipids, high enzyme concentration; for specific activity towards GST-PKBα: in the presence of PtdIns(3,4,5)P3; for fold increase in GST-PKBα activity: in the presence of PtdIns(3,4,5)P3 vesicles. The method, then:
as §1, §2, §3

T1 sequence (P31749 whole entry): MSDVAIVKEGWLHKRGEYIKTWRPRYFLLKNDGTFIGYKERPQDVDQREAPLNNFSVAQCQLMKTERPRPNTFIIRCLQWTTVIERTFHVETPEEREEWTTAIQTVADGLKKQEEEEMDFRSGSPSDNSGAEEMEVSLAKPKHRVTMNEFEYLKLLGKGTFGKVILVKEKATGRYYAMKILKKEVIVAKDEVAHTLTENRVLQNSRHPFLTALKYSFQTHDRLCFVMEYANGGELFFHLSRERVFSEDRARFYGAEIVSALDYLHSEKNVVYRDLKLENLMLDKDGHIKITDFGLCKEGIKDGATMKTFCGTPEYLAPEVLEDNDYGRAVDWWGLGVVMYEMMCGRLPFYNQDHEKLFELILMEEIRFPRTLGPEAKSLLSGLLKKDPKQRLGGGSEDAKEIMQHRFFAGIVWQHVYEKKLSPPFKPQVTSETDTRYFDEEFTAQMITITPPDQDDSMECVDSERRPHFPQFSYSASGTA

As to Triton X-100, the “activation and phosphorylation of GST-PKBα by PDK1 in the presence of Triton X-100” value with PDK1 [1] (listed as Triton X100) was “completely inhibits”; in the data set on PDK1 [1] (listed as Triton-X100), “prevented”.
Consider `CCCCCCCCCCCCCCCC(=O)OC[C@H](COP(=O)(O)OC1C(O)C(OP(=O)(O)O)C(O)C(OP(=O)(O)O)C1O)OC(=O)CCCCCCCCCCCCCCC` (stereo partly shown) [Lipid 8, sn-1,2 di-palmitoyl PtdIns(3,5)P2], for which the “phosphorylation of GST-PKBα by PDK1 (in words)” value with PDK1 [2] is recorded as “did not activate PDK1 or induce the phosphorylation”. In addition, the results for the “activation of PDK1 (in words)” value in the data set on PDK1 [1], in the data set on PDK1 [1] (listed as PtdIns(3,5)P2) and in the data set with PDK1 [1] (listed as lipid 8) were “no significant activation”, “did not activate PDK1 at all” and “did not activate PDK1”, respectively.
For the molecule “protein tyrosine phosphatase 1B: protein tyrosine phosphatase 1B”, the “PDK1 activity after treatment with phosphatase” value in the data set on PDK1 [1] (high concentrations of phosphatase) is on record as “no effect on activity”.
As for `CCCCC/C=C\C/C=C\CCCCCCCC(=O)OCC(COP(=O)(O)OC1C(O)C(OP(=O)(O)O)C(OP(=O)(O)O)C(OP(=O)(O)O)C1O)OC(=O)CCCCCCC/C=C\C/C=C\CCCCC` (racemic) [Lipid 5, Racemic sn-1,2-dilinoleoyl PtdIns(3,4,5)P3], in the data set on PDK1 [1], the “fold-activation of GST-PKBα (PDK1 activity)” value (shortened to “fold-activation of GST-PKBα”) stood at 36 fold and the “order of level of activation of the 3-phosphoinositide-dependent kinase (most effective first)” value (shortened to “order”) is 1.
For `O=P(O)(O)O[C@H]1[C@H](O)[C@@H](OP(=O)(O)O)[C@H](OP(=O)(O)O)[C@@H](OP(=O)(O)O)[C@H]1O` [IP4, inositol 1,3,4,5-tetrakisphosphate], in the data set with PDK1 [2], the “phosphorylation of GST-PKBα by PDK1 (in words)” value is on record as “did not activate PDK1 or induce the phosphorylation”. Further, the “activation of PDK1 (in words)” value in the data set with PDK1 [1] is recorded as “no significant activation”; in the data set on PDK1 [1] (listed as Ins(1,3,4,5)P4), “did not activate PDK1”; in the data set with PDK1 [1] (listed as inositol 1,3,4,5-tetrakisphosphate), “did not activate PDK1 at all”.
`CCCCC/C=C\C/C=C\C/C=C\C/C=C\CCCC(=O)OC(COC(=O)CCCCCCCCCCCCCCCCC)COP(=O)(O)OC1C(O)C(OP(=O)(O)O)C(OP(=O)(O)O)C(OP(=O)(O)O)C1O` (single isomer, unassigned) [Lipid 3, D-enantiomer of sn-2-arachidonyl-3-stearoyl PtdIns(3,4,5)P3]: the “fold-activation of GST-PKBα” value in the data set with PDK1 [1] (3-stearoyl D-PtdIns(3,4,5)P3) is 16 fold. The “activation of PDK1 (in words)” value in the data set with PDK1 [1] (listed as D-enantiomer of sn-2-arachidonyl-3-stearoyl PtdIns(3,4,5)P3) is reported as “potently activated PDK1”. Also, the “order” value in the data set with PDK1 [1] is listed as 2.
On to `CCCCCCCCCCCCCCCC(=O)OCC(COP(=O)(O)OC1C(O)C(OP(=O)(O)O)C(OP(=O)(O)O)C(OP(=O)(O)O)C1O)OC(=O)CCCCCCCCCCCCCCC` (stereo not shown) [Lipid 6, sn-1,2 di-palmitoyl PtdIns(3,4,5)P3], for which, in the data set on PDK1 [1], the “fold less effective in activating PDK1 than the sn-1-stearoyl-2-arachidonyl and sn-2-arachidonyl-3-stearoyl derivatives” value is on record as around 3 fold; the “fold-activation of GST-PKBα” value was “about 6 fold”; the “order” value turned out to be 4. Further, the “fold-activation of GST-PKBα” value with PDK1 [1] (listed as sn-1,2-dipalmitoyl D-PtdIns(3,4,5)P3) stood at 5.5 fold.
Take `CCCCC/C=C\C/C=C\C/C=C\C/C=C\CCCC(=O)OC(COC(=O)CCCCCCCCCCCCCCCCC)COP(=O)(O)OC1C(O)C(OP(=O)(O)O)C(OP(=O)(O)O)C(OP(=O)(O)O)C1O` (single isomer, unassigned) [Lipid 4, L-enantiomer of sn-2-arachidonyl-3-stearoyl PtdIns(3,4,5)P3]: the “activation of PDK1 (in words)” value is given as “no significant activation” in the data set on PDK1 [1] and “almost ineffective” in the data set on PDK1 [1] (listed as L-enantiomer of sn-2-arachidonyl-3-stearoyl PtdIns(3,4,5)P3). In addition, the “fold-activation of GST-PKBα” value in the data set with PDK1 [1] (3-stearoyl L-PtdIns(3,4,5)P3) was 2.3 fold.
Turning to “GST-PDK1: residues 52-556 of human PDK1 expressed in 293 cells as fusion with glutathione S-transferase”, in the data set with GST-PKBα, the “phosphorylation of GST-PKBα” value is 0.75 mol phosphate per mol protein, the “specific activity towards GST-PKBα” value is reported as 78 000 U/mg and the “fold increase in GST-PKBα activity” value amounted to 35 fold.

B1: GST-ΔPH-PDK1: PDK1 mutant lacking the putative C-terminal PH domain, residues 1-450, GST fusion (protein, UniProt O15530 1-450, looked up, fragment)
chain: MARTTSQLYDAVPIQSSVVLCSCPSPSMVRTQTESSTPPGIPGGSRQGPAMDGTAAEPRPGAGSLQHAQPPPQPRKKRPEDFKFGKILGEGSFSTVVLARELATSREYAIKILEKRHIIKENKVPYVTRERDVMSRLDHPFFVKLYFTFQDDEKLYFGLSYAKNGELLKYIRKIGSFDETCTRFYTAEIVSALEYLHGKGIIHRDLKPENILLNEDMHIQITDFGTAKVLSPESKQARANSFVGTAQYVSPELLTEKSACKSSDLWALGCIIYQLVAGLPPFRAGNEYLIFQKIIKLEYDFPEKFFPKARDLVEKLLVLDATKRLGCEEMEGYGPLKAHPFFESVTWENLHQQTPPKLTAYLPAMSEDDEDCYGNYDNLLSQFGCMQVSSSSSSHSLSASDTGLPQRSGSNIEQYIHDLDSNSFELDLQFSEDEKRLLLEKQAGGNPWHQ
modifications: GST fusion tag
notes: PDK1 mutant lacking the putative C-terminal PH domain, residues 1-450, GST fusion
As to B1, the “fold reduction of the rate of activation of GST-PKBα compared to full length wild-type GST-PDK1” value in the data set with GST-PKBα (PtdIns(3,4,5)P3 present) is listed as “about 30 fold”.

B2: GST-DSTPK61: residues 1-752 of Drosophila DSTPK61 expressed in E. coli as GST fusion (protein)
chain: MKCKSWSNKINNYVVRKIKSIKINGTQQQLQLPGSGASGIAAAAVITVASDCGENCSSNGTEHQQHFNIATTTATSATEATMPAMAKEKASATVSLGESNFRDINLKDLAVVVEAASRLHHQQNVCGCGAVSSTENNNNSRYGSSKYLTNGHTSPLAAAVASNSSSVATTPHCRMLHNCSLQQYQNDIRQQTEILDMLRQQHQQGYQSQQQQQQPQQQQEQQQQQEQSQQQQQLQNPAPRRSPNDFIFGRYIGEGSYSIVYLAVDIHSRREYAIKVCEKRLILRERKQDYIKREREVMHQMTNVPGFVNLSCTFQDQRSLYFVMTYARKGDMLPYINRVGSFDVACTRHYAAELLLACEHMHRRNVVHRDLKPENILLDEDMHTLIADFGSAKVMTAHERALATEHCSEQRRSNSDEDDEDSDRLENEDEDFYDRDSEELDDGDDEQQQEEMDSPRHRQRRYNRHRKASFVGTAQYVSPEVLQNGPITPAADLWALGCIVYQMIAGLPPFRGSNDYVIFKEILDCAVDFPQGFDKDAEDLVRKLLRVDPRDRLGAQDEFGYYESIRAHPFFAGIDWQTLRQQTPPPIYPYLPGVSQDEDFRSSYTVPGDLEPGLDERQISRLLSAELGVGSSVAMPVKRSTAKNSFDLNDAEKLQRLEQQKTDKWHVFADGEVILKKGFVNKRKGLFARKRMLLLTTGPRLIYIDPVQMIKKGEIPWSPDLRAEYKNFKIFFVHTPNRTYYLDDPEGYAIHW
modifications: left off: a dimerising Fc or GST
notes: residues 1-752 of Drosophila DSTPK61 expressed in E. coli as GST fusion
Regarding B2, in the data set with GST-PKBα, the “phosphorylation of GST-PKBα” value is 0.75 mol phosphate per mol protein, the “specific activity towards GST-PKBα” value amounted to 280 U/mg and the “fold increase in GST-PKBα activity” value is 35 fold.

B3: GST-D223A-PDK1: catalytically inactive GST-PDK1 mutant in which Asp223 was changed to Ala (protein, UniProt O15530 1-556, looked up, variant D223A)
3-phosphoinositide-dependent …: MARTTSQLYDAVPIQSSVVLCSCPSPSMVRTQTESSTPPGIPGGSRQGPAMDGTAAEPRPGAGSLQHAQPPPQPRKKRPEDFKFGKILGEGSFSTVVLARELATSREYAIKILEKRHIIKENKVPYVTRERDVMSRLDHPFFVKLYFTFQDDEKLYFGLSYAKNGELLKYIRKIGSFDETCTRFYTAEIVSALEYLHGKGIIHRDLKPENILLNEDMHIQITAFGTAKVLSPESKQARANSFVGTAQYVSPELLTEKSACKSSDLWALGCIIYQLVAGLPPFRAGNEYLIFQKIIKLEYDFPEKFFPKARDLVEKLLVLDATKRLGCEEMEGYGPLKAHPFFESVTWENLHQQTPPKLTAYLPAMSEDDEDCYGNYDNLLSQFGCMQVSSSSSSHSLSASDTGLPQRSGSNIEQYIHDLDSNSFELDLQFSEDEKRLLLEKQAGGNPWHQFVENNLILKMGPVDKRKGLFARRRQLLLTEGPHLYYVDPVNKVLKGEIPWSQELRPEAKNFKTFFVHTPNRTYYLMDPSGNAHKWCRKIQEVWRQRYQSHPDAAVQ
modifications: GST fusion tag
B3: the “phosphorylation and activation of GST-PKBα (in words)” value in the data set with GST-PKBα (PtdCho/PtdSer lipid vesicles containing PtdIns(3,4,5)P3) is given as “did not phosphorylate or active GST-PKBα”.
